In patent US20160113919A1 (The Board of Trustees of the Leland Stanford Junior …, priority 2014, published 2016):

System: INH-resistant ΔkatG H37Rv
Assay: microbe, parasite or virus in culture
Type: cell-based, Mycobacterium tuberculosis

Row | Structure (SMILES) | EC80 against ΔkatG H37Rv [µM] | microbicidal capacity compared with S-CQ or racemic CQ | inhibition at 50 µM (Mycobacterium tuberculosis, H37RV, RAW264.7) [%]
1 | CCN(CC)CCCC(C)Nc1ccnc2cc(Cl)ccc12 (racemic) [racemic CQ, chloroquine] | ~50 | – | –
2 | CCN(CC)CCC[C@@H](C)Nc1ccnc2cc(Cl)ccc12 [R-CQ, (R)-chloroquine] | 1 | significantly higher | –
3 | CCN(CC)CCC[C@H](C)Nc1ccnc2cc(Cl)ccc12 [S-CQ, (S)-chloroquine] | – | – | 60
